Measurements: US12162959B2, “Cyclic peptide for treating cancer” (Saint Leo University, priority 2018, dated 2024)
Where a SMILES comes first, the peptide text is derived from it.

Legend:
[1] = test system: Human recombinant CMG helicase; assay: In vitro CMG helicase activity assay with Y-shaped oligonucleotide substrate; type: biochemical; conditions: about 5 nM CMG helicase, 1.0, 2.0 or 5.0 nM peptide, 0.5 mM ATP, 37° C. 45 minutes; FIG. 1A/1B
Experimental: Human recombinant CMG helicase was co-incubated with Peptide 7N (amide cyclic of SEQ ID NO: 1) peptide in the 1-5 nM range and subjected to an in vitro activity assay with Y-shaped oligonucleotides as a substrate.
About 5 nM of CMG helicase was pre-incubated with 1.0, 2.0, or 5.0 nM of Peptide 7N peptide for 20 minutes on ice. In vitro helicase reactions containing partially annealed Y-shaped oligonucleotides as substrate were fired by the addition of 0.5 mM ATP as described previously (Kang Y H et al. PNAS, 2012, 109(16), p. 6042-6047). Reactions were incubated at 37° C. for 45 minutes, stopped with 4 μL of 6× stop solution, and separated by 10% PAGE. To visualize DNA bands, the gel was stained using SYBR Gold nucleic acid stain. Densities of single-stranded DNA bands were quantified by using Image Lab software, and normalized against control.

[2] = test system: MRC-9 normal embryonic lung fibroblasts
Experimental: (§1) Cells were incubated post-transfection for a duration of two doubling periods and assessed for viability by using a cell proliferetion CCK-8 assay.
(§2) IC50 values were calculated form obtained equations that describe cell viability as a function of peptide concentration.

[3] = test system: THLE-3 immortalized normal liver cells
Experimental: (§3) Hepatocellular carcinoma (Hep3B and Hep-G2) and immortalized normal liver (THLE-3) cells were transfected with 1.25 μM, 2.5 μM, 5.0 μM, or 20.0 μM of peptide 7N by using Pierce Protein Transfection reagent. Cells were incubated post-transfection for a duration of two doubling periods and assessed for viability by using a cell proliferetion CCK-8 assay.
as §2

[4] = test system: hTERT-HPNE immortalized normal pancreatic cells
Experimental: as §1, §2

[5] = test system: SVG p12 immortalized normal astroglia cells
Experimental: as §1, §2

[6] = test system: HMEC primary mammary epithelial cells
Experimental: (§4) Breast adenocarcinoma (MDA-MB468), ductal carcinoma (BT-549), and primary mammary epithelial (HMEC) cells were transfected with 1.25 μM, 2.5 μM, 5.0 μM, or 20.0 μM of peptide 7N by using Pierce Protein Transfection reagent. Cells were incubated post-transfection for a duration of two doubling periods and assessed for viability by using a cell proliferetion CCK-8 assay.
as §2

Experimental for BT-549 cells: as §4, §2
Experimental for H596 cells: as §1, §2
Experimental for HLF-a cells: as §1, §2
Experimental for Hep-G2 cells: as §3, §2
Experimental for Hep3B cells: as §3, §2
Experimental for Hs 766T cells: as §1, §2
Experimental for M059J cells: as §1, §2
Experimental for M059K cells: as §1, §2
Experimental for MDA-MB468 cells: as §4, §2
Experimental for NTERA-2 cells: Pierce Protein Transfection reagent (Thermo Scientific, 89850) was used to deliver peptide to the cultured cells. Transfected cells were allowed to go through two division cycles (48 hours) port-transfection, after which amounts of alive cells were determined by using a colorimetric CCK-8 assay (Dojindo Molecular Technologies, Inc.).
Human embryonal testicular carcinoma cells (NTERA-2 from ATCC #CRL-1973) were transfected with 1-10 μM Peptide 7N for 4.0 hours, incubated in a complete media for 48 hours, and assessed for viability by using a CCK-8 colorimetric assay.
as §2
Experimental for PANC-1 cells: as §1, §2
Experimental for SW480 cells: (§5) Colorectal adenocarcinoma cells (SW480 and SW620) were transfected with 1.25 μM, 2.5 μM, 5.0 μM, or 20.0 μM of peptide 7N by using Pierce Protein Transfection reagent. Cells were incubated post-transfection for a duration of two doubling periods and assessed for viability by using a cell proliferetion CCK-8 assay.
as §2
Experimental for SW620 cells: as §5, §2

IC50 (NTERA-2 cells; 48 h): 7 µM | IC50 (H596 cells): 12.2 µM | IC50 (HLF-a cells): 14.4 µM | IC50 (Hep3B cells): 14.1 µM | IC50 (Hep-G2 cells): 16.7 µM | IC50 (Hs 766T cells): 18.1 µM | IC50 (PANC-1 cells): 24.6 µM | IC50 (M059J cells): 15.4 µM | IC50 (M059K cells): 16.1 µM | IC50 (MDA-MB468 cells): 17.1 µM | IC50 (BT-549 cells): 18.3 µM | IC50 [6]: 134 µM | IC50 (SW480 cells): 21.8 µM | IC50 (SW620 cells): 22 µM
SMILES: CSCC[C@@H]1NC(=O)[C@H](CCC(N)=O)NC(=O)[C@H](CC(C)C)NC(=O)[C@H](C(C)C)NC(=O)[C@H](CCC(=O)O)NC(=O)CNC(=O)[C@H](CCCCN)NC(=O)[C@H](C(C)C)NC(=O)[C@H](CC(C)C)NC(=O)[C@H](CC(=O)O)NC(=O)[C@H](CC(=O)O)NC(=O)[C@H](CCC(=O)O)NC1=O [Peptide 7N, Lys-Gly-Glu-Val-Leu-Gln-Met-Glu-Asp-Asp-Leu-Val] (cyclo(KGEVLQMEDDLV))
Inhibition of CMG helicase (density of single-stranded DNA bands normalized against control) [1]: inhibited CMG helicase in a robust dose-dependent manner | Proliferation/viability of NTERA-2 cells (NTERA-2 cells; transfected with 1-10 μM peptide for 4.0 hours, 48 hours in complete media, CCK-8, FIG. 2): effectively inhibited proliferation | Proliferation of lung carcinoma cells (result in words) (H596 cells; H596, 1.25-20.0 μM peptide, CCK-8, FIG. 3): decreased proliferation | Proliferation of lung carcinoma cells (result in words) (HLF-a cells; HLF-a, 1.25-20.0 μM peptide, CCK-8, FIG. 3): decreased proliferation | IC50 [2]: 162 µM | Effect on normal lung fibroblasts (result in words) ([2]; MRC-9, 1.25-20.0 μM peptide, CCK-8, FIG. 3): sparing | Proliferation of liver carcinoma cells (result in words) (Hep3B cells; Hep3B, 1.25-20.0 μM peptide, CCK-8, FIG. 4): decreased proliferation | Proliferation of liver carcinoma cells (result in words) (Hep-G2 cells; Hep-G2, 1.25-20.0 μM peptide, CCK-8, FIG. 4): decreased proliferation | IC50 [3]: 722 µM | Effect on immortalized normal liver cells (result in words) ([3]; THLE-3, 1.25-20.0 μM peptide, CCK-8, FIG. 4): sparing | Proliferation of pancreatic carcinoma cells (result in words) (Hs 766T cells; Hs 766T, 1.25-20.0 μM peptide, CCK-8, FIG. 5): decreased proliferation | Proliferation of pancreatic carcinoma cells (result in words) (PANC-1 cells; PANC-1, 1.25-20.0 μM peptide, CCK-8, FIG. 5): decreased proliferation | IC50 [4]: 1050 µM | Effect on immortalized normal pancreatic cells (result in words) ([4]; hTERT-HPNE, 1.25-20.0 μM peptide, CCK-8, FIG. 5): sparing | Proliferation of brain glioma cells (result in words) (M059J cells; M059J, 1.25-20.0 μM peptide, CCK-8, FIG. 6): decreased proliferation | Proliferation of brain glioma cells (result in words) (M059K cells; M059K, 1.25-20.0 μM peptide, CCK-8, FIG. 6): decreased proliferation | IC50 [5]: 271 µM | Effect on immortalized normal astroglia cells (result in words) ([5]; SVG p12, 1.25-20.0 μM peptide, CCK-8, FIG. 6): sparing | Proliferation of breast cancer cells (result in words) (MDA-MB468 cells; MDA-MB468, 1.25-20.0 μM peptide, CCK-8, FIG. 7): decreases proliferation | Proliferation of breast cancer cells (result in words) (BT-549 cells; BT-549, 1.25-20.0 μM peptide, CCK-8, FIG. 7): decreases proliferation | Effect on normal mammary epithelial cells (result in words) ([6]; HMEC, 1.25-20.0 μM peptide, CCK-8, FIG. 7): sparing | Proliferation of colorectal cancer cells (result in words) (SW480 cells; SW480, 1.25-20.0 μM peptide, CCK-8, FIG. 8): decreased proliferation | Proliferation of colorectal cancer cells (result in words) (SW620 cells; SW620, 1.25-20.0 μM peptide, CCK-8, FIG. 8): decreased proliferation
